Active and inactive are the calls of the source. The rule behind the calls is not given here.
Legend:
Pseudomonas aeruginosa [1] = experiment: Antibacterial activity against Pseudomonas aeruginosa at 40 ug/disk; type: functional, organism-based
Candida albicans = experiment: Antifungal activity against Candida albicans; type: functional, organism-based
Staphylococcus aureus [2] = experiment: Antibacterial activity against Staphylococcus aureus at 40 ug/disk; type: functional; settings: for zone of inhibition at 40 µg/disc: read-out: IZ
Escherichia coli [3] = experiment: Antibacterial activity against Escherichia coli at 40 ug/disk; type: functional; settings: for zone of inhibition at 40 µg/disc: read-out: IZ
Bacillus subtilis = experiment: Antibacterial activity against Bacillus subtilis; type: functional, organism-based
Rhizomucor miehei = experiment: Antifungal activity against Mucor miehei; type: functional, organism-based
Escherichia coli [4] = experiment: Antibacterial activity against Escherichia coli at 30 ug/disk; type: functional, organism-based
Pseudomonas aeruginosa [5] = experiment: Antibacterial activity against Pseudomonas aeruginosa at 30 ug/disk; type: functional
Staphylococcus aureus [6] = experiment: Antibacterial activity against Staphylococcus aureus at 30 ug/disk; type: functional; settings: for zone of inhibition at 30 µg/disc: read-out: IZ
Escherichia coli [7] = experiment: Antibacterial activity against Escherichia coli at 1 ug/disk; type: functional; settings: read-out: IZ
Pseudomonas aeruginosa [8] = experiment: Antibacterial activity against Pseudomonas aeruginosa at 1 ug/disk; type: functional; settings: read-out: IZ
Staphylococcus aureus [9] = experiment: Antibacterial activity against Staphylococcus aureus at 1 ug/disk; type: functional; settings: read-out: IZ
Escherichia coli [10] = experiment: Antibacterial activity against Escherichia coli at 24 ug/disk; type: functional, organism-based
Staphylococcus aureus [11] = experiment: Antibacterial activity against Staphylococcus aureus at 24 ug/disk; type: functional, organism-based
Pseudomonas aeruginosa [12] = experiment: Antibacterial activity against Pseudomonas aeruginosa at 24 ug/disk; type: functional, organism-based

Row | SMILES | inhibition zone (IZ) (Pseudomonas aeruginosa [1]) | Activity (Candida albicans) | Activity (Bacillus subtilis) | Activity (Rhizomucor miehei) | inhibition zone (IZ) (Escherichia coli [4]) | inhibition zone (IZ) (Pseudomonas aeruginosa [5]) | further results
1 | C/C=C1\C[C@H]2C=Nc3c(ccc(OC)c3O)C(=O)N2C1 [LIMAZEPINE E] | inactive | inactive | inactive | inactive | – | – | zone of inhibition at 40 µg/disc (Staphylococcus aureus [2]): 12 mm; zone of inhibition at 40 µg/disc (Escherichia coli [3]): 10 mm
2 | C/C=C1\C[C@H]2C=Nc3ccccc3C(=O)N2C1 | – | inactive | inactive | inactive | inactive | inactive | inhibition zone (IZ) (Staphylococcus aureus [6]): inactive
3 | COC(=O)c1ccc(OC)c(O)c1N | – | inactive | inactive | inactive | inactive | inactive | zone of inhibition at 30 µg/disc (Staphylococcus aureus [6]): 11 mm
4 | CCC1=CN2C(=O)c3ccc(OC)c(O)c3NC(=O)[C@@H]2C1 | inactive | inactive | inactive | inactive | – | – | inhibition zone (IZ) (Staphylococcus aureus [2]): inactive; inhibition zone (IZ) (Escherichia coli [3]): inactive
5 | CC1(C)S[C@@H]2[C@H](NC(=O)[C@H](N)c3ccccc3)C(=O)N2[C@H]1C(=O)O [AMPICILLIN] | – | inactive | inactive | inactive | – | – | zone of inhibition at 1 µg/disc (Escherichia coli [7]): 25 mm; zone of inhibition at 1 µg/disc (Pseudomonas aeruginosa [8]): 30 mm; zone of inhibition at 1 µg/disc (Staphylococcus aureus [9]): 13 mm
6 | CCc1c[nH]c(C=O)c1 | – | inactive | inactive | inactive | – | – | inhibition zone (IZ) (Escherichia coli [10]): inactive; inhibition zone (IZ) (Staphylococcus aureus [11]): inactive; inhibition zone (IZ) (Pseudomonas aeruginosa [12]): inactive
7 | CCC1=CN2C(=O)c3ccc(OC)c(O)c3N=C[C@@H]2C1 [LIMAZEPINE C] | inactive | inactive | inactive | inactive | – | – | zone of inhibition at 40 µg/disc (Staphylococcus aureus [2]): 18 mm; zone of inhibition at 40 µg/disc (Escherichia coli [3]): 10 mm
8 | C/C=C1\C[C@H]2[C@@H](O)Nc3ccccc3C(=O)N2C1 | – | inactive | inactive | inactive | inactive | inactive | inhibition zone (IZ) (Staphylococcus aureus [6]): inactive
9 | CCc1cc2cnc3c(O)c(OC)ccc3c(=O)n2c1 [LIMAZEPINE D] | – | inactive | inactive | inactive | inactive | – | zone of inhibition at 30 µg/disc (Pseudomonas aeruginosa [5]; read-out: IZ): 9 mm; zone of inhibition at 30 µg/disc (Staphylococcus aureus [6]): 7 mm

— ChEMBL document CHEMBL1151897, “Limazepines A-F, pyrrolo[1,4]benzodiazepine Antibiotics from an Indonesian Micrococcus sp” (2009)
